Source: patent US20080014256A1 (priority 2005, published 2008)
Several values for one entry are separate records, joined by “and”; a condition that tells them apart may be missing. Equal values may be shown once. Read-outs that look alike come from different tables or passages of the source. Marks after values point to notes of the source that are not given here.

Key:
cell monolayer = conditions: pH 6
[1] = cynomolgus monkey, in vivo, 15 mg/kg
Procedure: (§1) Four male cynomolgus monkeys were used in the study. […] The dosing volume was 10 mL/kg. Blood samples (2 mL per sample) were obtained prior to dosing (0 hr) and at 0.5, 1, 2, 4, 6, 8, 12, 24, 32 and 48 hr after the oral dose. […] Blood samples (2 mL) were obtained pre-dose (0 hr) and at 5 mm., 0.5, 1, 2, 4, 6, 8, 12, 24, 32 and 48 hr post-dose. Blood samples were collected using a stainless steel needle and vacutainer tube containing sodium heparin as the anticoagulant. Blood samples were placed on ice after collection and centrifuged at approximately 4° C. Plasma samples was separated, frozen and stored at approximately −70° C. prior to analysis.
(§2) Pharmacokinetic parameters were calculated using the pharmacokinetics analysis program WinNonlin, version 2.1 (Scientific Consulting Inc.) from the individual animal concentration vs. time profiles. […] For the purpose of this analysis, no attempt was made to back extrapolate the concentration immediately after the IV bolus dose, rather the concentration at 0 hr (C0, immediately after dosing) was assumed to be equal to the first measured concentration (at 5 minutes, C5min). […] The terminal half-life (t1/2) was determined by 0.693/λ, where λ is the terminal rate constant and is determined by a log-linear fitting of the terminal portion of the concentration-time curve. AUC0-4 was calculated by AUC0-t+Ct/λ, where AUC0-t was the AUC from time 0 to t, the last quantifiable time point and Ct was the last quantifiable concentration. The area under the plasma concentration-time curve from time 0 to t (AUC0-t) was calculated using the linear trapezoidal method. Systemic clearance (CLT) after the iv dose was calculated using the formula of Dose/AUC0-4. The volume of distribution at steady-state (Vdss) was calculated using the formula of MRTiv×CLT, where MRTiv is the mean residence time after iv dosing and equals AUMC0-4/AUC0-4. For the oral dose, Cmax and tmax values were obtained by inspection of the concentration vs. time curves.

[2] = Pharmacokinetics of tigecycline after single oral (gavage) and intravenous dose in 0.9% saline
Procedure: as §1, §2

Q: Which cell monolayer permeability (cell monolayer) does the source give for Tigecycline here?
A: Its cell monolayer permeability is 0.04 ×10⁻⁶ cm/s.

Q: What about the “AUC0-t or 0-∞” value [1] of the same substance?
A: Its value is 18267.

Q: And the “AUC0-t or 0-∞” value ([1]; po)?
A: Its value is 163.

Q: And the AUC0-4 ([2]; 5 mg/kg iv, animals 1-4 and Mean)?
A: Its AUC0-4 is 20178 ng·h/mL.

Q: What about the Cmax ([2]; 15 mg/kg oral (gavage), 0.9% saline, animals 1-4 and Mean) of the same substance?
A: Its Cmax is 131 ng/mL and 191 ng/mL and 178 ng/mL.

Q: What about the AUC0-t ([2]; 15 mg/kg oral (gavage), t = 2 hr (animals 1, 2, 4) or t = 1 hr (animal 3), individual and Mean) of the same substance?
A: The AUC0-t was 105^c ng · hr/mL.
